Test results reported in patent US20230085307A1, “PYRIDAZINONE COMPOUND AND HERBICIDE” (NISSAN CHEMICAL CORPORATION, priority 2019, published 2023).

Key:
barnyard grass [1] = assay: Test Example 3: herbicidal effect by foliage application, Wagner pot (Table 18, symbol H); assay type: in vivo, barnyard grass (Echinochloa crus-galli); settings: 320 g/ha
In short: (§1)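 Plants were sown in alluvial soil held under 0.1–0.5 cm standing water and grown 14 days in a greenhouse at 25–30 °C. An emulsifiable formulation, water-diluted to the set dose, was then sprayed onto the foliage, and effects were scored three weeks later using previously defined criteria.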

Chinese sprangletop = assay: Test Example 3: herbicidal effect by foliage application, Wagner pot (Table 18, symbol D); assay type: in vivo, chinese sprangletop (Leptochloa chinensis); settings: 320 g/ha
In short: as §1

rice flat sedge = assay: Test Example 3: herbicidal effect by foliage application, Wagner pot (Table 18, symbol E); assay type: in vivo, rice flat sedge (Cyperus iria); settings: 320 g/ha
In short: as §1

southern crabgrass [2] = assay: Test Example 4: herbicidal effect by soil treatment (Table 19, symbol F); assay type: in vivo, southern crabgrass (Digitaria ciliaris); settings: amount of applied herbicide 320 g/ha
In short: (§2)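 Pre-emergence style soil spray: seeds under ~1.5 cm sterilized diluvial soil received a uniform coat of emulsion diluted to the predetermined herbicide amount. Greenhouse 25–30° C; readout at week three on previously defined criteria.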

green foxtail [3] = assay: Test Example 4: herbicidal effect by soil treatment (Table 19, symbol G); assay type: in vivo, green foxtail (Setaria viridis); settings: amount of applied herbicide 320 g/ha
In short: as §2

barnyard grass [4] = assay: Test Example 4: herbicidal effect by soil treatment (Table 19, symbol H); assay type: in vivo, barnyard grass (Echinochloa crus-galli); settings: amount of applied herbicide 320 g/ha
In short: as §2

wild oat [5] = assay: Test Example 4: herbicidal effect by soil treatment (Table 19, symbol I); assay type: in vivo, wild oat (Avena fatua); settings: amount of applied herbicide 320 g/ha
In short: as §2

blackgrass [6] = assay: Test Example 4: herbicidal effect by soil treatment (Table 19, symbol J); assay type: in vivo, blackgrass (Alopecurus myosuroides); settings: amount of applied herbicide 320 g/ha
In short: as §2

Italian ryegrass [7] = assay: Test Example 4: herbicidal effect by soil treatment (Table 19, symbol K); assay type: in vivo, Italian ryegrass (Lolium multiflorum); settings: amount of applied herbicide 320 g/ha
In short: as §2

windgrass [8] = assay: Test Example 4: herbicidal effect by soil treatment (Table 19, symbol L); assay type: in vivo, windgrass (Apera spica-venti); settings: amount of applied herbicide 320 g/ha
In short: as §2

velvetleaf [9] = assay: Test Example 4: herbicidal effect by soil treatment (Table 19, symbol M); assay type: in vivo, velvetleaf (Abutilon theophrasti); settings: amount of applied herbicide 320 g/ha
In short: as §2

redroot pigweed [10] = assay: Test Example 4: herbicidal effect by soil treatment (Table 19, symbol N); assay type: in vivo, redroot pigweed (Amaranthus retroflexus); settings: amount of applied herbicide 320 g/ha
In short: as §2

lambsquarters [11] = assay: Test Example 4: herbicidal effect by soil treatment (Table 19, symbol O); assay type: in vivo, lambsquarters (Chenopodium album); settings: amount of applied herbicide 320 g/ha
In short: as §2

chickweed [12] = assay: Test Example 4: herbicidal effect by soil treatment (Table 19, symbol P); assay type: in vivo, common chickweed (Stellaria media); settings: amount of applied herbicide 320 g/ha
In short: as §2

persian speedwell [13] = assay: Test Example 4: herbicidal effect by soil treatment (Table 19, symbol R); assay type: in vivo, Persian speedwell (Veronica persica); settings: amount of applied herbicide 320 g/ha
In short: as §2

southern crabgrass [14] = assay: Test Example 5: herbicidal effect by foliage application, plastic box (Table 20, symbol F); assay type: in vivo, southern crabgrass (Digitaria ciliaris); settings: amount of applied herbicide 320 g/ha; foliage application after 14-day growth; evaluated three weeks after application
In short: (§3)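 Plants were sown into sterilized diluvial soil under about 1.5 cm cover and kept in a greenhouse at 25° C. to 30° C. Fourteen days on, foliage received an even spray of the diluted emulsion. Herbicidal or crop effect was judged three weeks afterwards.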

green foxtail [15] = assay: Test Example 5: herbicidal effect by foliage application, plastic box (Table 20, symbol G); assay type: in vivo, green foxtail (Setaria viridis); settings: amount of applied herbicide 320 g/ha; foliage application after 14-day growth; evaluated three weeks after application
In short: as §3

barnyard grass [16] = assay: Test Example 5: herbicidal effect by foliage application, plastic box (Table 20, symbol H); assay type: in vivo, barnyard grass (Echinochloa crus-galli); settings: amount of applied herbicide 320 g/ha; foliage application after 14-day growth; evaluated three weeks after application
In short: as §3

wild oat [17] = assay: Test Example 5: herbicidal effect by foliage application, plastic box (Table 20, symbol I); assay type: in vivo, wild oat (Avena fatua); settings: amount of applied herbicide 320 g/ha; foliage application after 14-day growth; evaluated three weeks after application
In short: as §3

blackgrass [18] = assay: Test Example 5: herbicidal effect by foliage application, plastic box (Table 20, symbol J); assay type: in vivo, blackgrass (Alopecurus myosuroides); settings: amount of applied herbicide 320 g/ha; foliage application after 14-day growth; evaluated three weeks after application
In short: as §3

Italian ryegrass [19] = assay: Test Example 5: herbicidal effect by foliage application, plastic box (Table 20, symbol K); assay type: in vivo, Italian ryegrass (Lolium multiflorum); settings: amount of applied herbicide 320 g/ha; foliage application after 14-day growth; evaluated three weeks after application
In short: as §3

windgrass [20] = assay: Test Example 5: herbicidal effect by foliage application, plastic box (Table 20, symbol L); assay type: in vivo, windgrass (Apera spica-venti); settings: amount of applied herbicide 320 g/ha; foliage application after 14-day growth; evaluated three weeks after application
In short: as §3

velvetleaf [21] = assay: Test Example 5: herbicidal effect by foliage application, plastic box (Table 20, symbol M); assay type: in vivo, velvetleaf (Abutilon theophrasti); settings: amount of applied herbicide 320 g/ha; foliage application after 14-day growth; evaluated three weeks after application
In short: as §3

redroot pigweed [22] = assay: Test Example 5: herbicidal effect by foliage application, plastic box (Table 20, symbol N); assay type: in vivo, redroot pigweed (Amaranthus retroflexus); settings: amount of applied herbicide 320 g/ha; foliage application after 14-day growth; evaluated three weeks after application
In short: as §3

lambsquarters [23] = assay: Test Example 5: herbicidal effect by foliage application, plastic box (Table 20, symbol O); assay type: in vivo, lambsquarters (Chenopodium album); settings: amount of applied herbicide 320 g/ha; foliage application after 14-day growth; evaluated three weeks after application
In short: as §3

chickweed [24] = assay: Test Example 5: herbicidal effect by foliage application, plastic box (Table 20, symbol P); assay type: in vivo, common chickweed (Stellaria media); settings: amount of applied herbicide 320 g/ha; foliage application after 14-day growth; evaluated three weeks after application
In short: as §3

persian speedwell [25] = assay: Test Example 5: herbicidal effect by foliage application, plastic box (Table 20, symbol R); assay type: in vivo, Persian speedwell (Veronica persica); settings: amount of applied herbicide 320 g/ha; foliage application after 14-day growth; evaluated three weeks after application
In short: as §3

CC(=O)COc1ccc(-c2sc3cc(F)c(F)cc3c2-c2c(O)c(C)nn(C)c2=O)cc1 [5-023]
herbicidal effect on barnyard grass (H) (barnyard grass [1]): 4 (Herbicidal rate of 70% or more and less than 90%)
herbicidal effect on Chinese sprangletop (D) (Chinese sprangletop): 3 (Herbicidal rate of 40% or more and less than 70%)
herbicidal effect on rice flat sedge (E) (rice flat sedge): 0 (Herbicidal rate of 5% or less (almost no effect))
F: southern crabgrass, herbicidal effect grade (southern crabgrass [2]): 0 (Herbicidal rate of 5% or less (almost no effect))
G: green foxtail, herbicidal effect grade (green foxtail [3]): 0 (Herbicidal rate of 5% or less (almost no effect))
H: barnyard grass, herbicidal effect grade (barnyard grass [4]): 0 (Herbicidal rate of 5% or less (almost no effect))
I: wild oat, herbicidal effect grade (wild oat [5]): 0 (Herbicidal rate of 5% or less (almost no effect))
J: blackgrass, herbicidal effect grade (blackgrass [6]): 0 (Herbicidal rate of 5% or less (almost no effect))
K: Italian ryegrass, herbicidal effect grade (Italian ryegrass [7]): 0 (Herbicidal rate of 5% or less (almost no effect))
L: windgrass, herbicidal effect grade (windgrass [8]): 0 (Herbicidal rate of 5% or less (almost no effect))
M: velvetleaf, herbicidal effect grade (velvetleaf [9]): 0 (Herbicidal rate of 5% or less (almost no effect))
N: redroot pigweed, herbicidal effect grade (redroot pigweed [10]): 3 (Herbicidal rate of 40% or more and less than 70%)
O: lambsquarters, herbicidal effect grade (lambsquarters [11]): 2 (Herbicidal rate of 20% or more and less than 40%)
P: chickweed, herbicidal effect grade (chickweed [12]): 3 (Herbicidal rate of 40% or more and less than 70%)
R: persian speedwell, herbicidal effect grade (persian speedwell [13]): 0 (Herbicidal rate of 5% or less (almost no effect))
Herbicidal effect by foliage application, F: southern crabgrass (southern crabgrass [14]): 0 (Herbicidal rate of 5% or less (almost no effect))
Herbicidal effect by foliage application, G: green foxtail (green foxtail [15]): 4 (Herbicidal rate of 70% or more and less than 90%)
Herbicidal effect by foliage application, H: barnyard grass (barnyard grass [16]): 1 (Herbicidal rate of 5% or more and less than 20%)
Herbicidal effect by foliage application, I: wild oat (wild oat [17]): 0 (Herbicidal rate of 5% or less (almost no effect))
Herbicidal effect by foliage application, J: blackgrass (blackgrass [18]): 0 (Herbicidal rate of 5% or less (almost no effect))
Herbicidal effect by foliage application, K: Italian ryegrass (Italian ryegrass [19]): 0 (Herbicidal rate of 5% or less (almost no effect))
Herbicidal effect by foliage application, L: windgrass (windgrass [20]): 0 (Herbicidal rate of 5% or less (almost no effect))
Herbicidal effect by foliage application, M: velvetleaf (velvetleaf [21]): 5 (Herbicidal rate of 90% or more (almost completely withered))
Herbicidal effect by foliage application, N: redroot pigweed (redroot pigweed [22]): 5 (Herbicidal rate of 90% or more (almost completely withered))
Herbicidal effect by foliage application, O: lambsquarters (lambsquarters [23]): 3 (Herbicidal rate of 40% or more and less than 70%)
Herbicidal effect by foliage application, P: chickweed (chickweed [24]): 5 (Herbicidal rate of 90% or more (almost completely withered))
Herbicidal effect by foliage application, R: persian speedwell (persian speedwell [25]): 3 (Herbicidal rate of 40% or more and less than 70%)
